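The concentration for 50% growth inhibition is given as GI50. The concentration for full growth arrest is given as TGI.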
How the values were obtained:
Assay in all cases: inhibition of tumour cell growth, NCI panel, 384-well format
T-47D breast = system: T-47D breast
DU-145 prostate = system: DU-145 prostate
SNB-75 CNS = system: SNB-75 CNS
MDA-MB-435 melanoma = system: MDA-MB-435 melanoma
SF-268 CNS = system: SF-268 CNS
NCI-H322M lung = system: NCI-H322M lung
EKVX NSCLC = system: EKVX NSCLC
SN12C renal = system: SN12C renal
MOLT-4 leukemia = system: MOLT-4 leukemia
SK-MEL-28 melanoma = system: SK-MEL-28 melanoma
NCI/ADR-RES ovarian = system: NCI/ADR-RES ovarian
CCRF-CEM leukemia = system: CCRF-CEM leukemia
SF-295 CNS = system: SF-295 CNS
HCC-2998 colon = system: HCC-2998 colon
SK-MEL-5 melanoma = system: SK-MEL-5 melanoma
HOP-62 NSCLC = system: HOP-62 NSCLC
OVCAR-3 ovarian = system: OVCAR-3 ovarian
TK-10 renal = system: TK-10 renal
NCI-H460 NSCLC = system: NCI-H460 NSCLC
HOP-92 NSCLC = system: HOP-92 NSCLC
HL-60(TB) leukemia = system: HL-60(TB) leukemia
HS 578T breast = system: HS 578T breast
KM12 colon = system: KM12 colon
UACC-62 melanoma = system: UACC-62 melanoma
ACHN renal = system: ACHN renal
NCI-H226 lung = system: NCI-H226 lung
OVCAR-8 ovarian = system: OVCAR-8 ovarian
MDA-MB-468 breast = system: MDA-MB-468 breast
IGROV1 ovarian = system: IGROV1 ovarian
NCI-H23 lung = system: NCI-H23 lung
786-0 renal = system: 786-0 renal
BT-549 breast = system: BT-549 breast
HT29 colon = system: HT29 colon
NCI-H522 lung = system: NCI-H522 lung
SR leukemia = system: SR leukemia
OVCAR-4 ovarian = system: OVCAR-4 ovarian
PC-3 prostate = system: PC-3 prostate
SK-OV-3 ovarian = system: SK-OV-3 ovarian
SF-539 CNS = system: SF-539 CNS
RXF 393 renal = system: RXF 393 renal
MALME-3M melanoma = system: MALME-3M melanoma
HCT-116 colon = system: HCT-116 colon
UACC-257 melanoma = system: UACC-257 melanoma
COLO 205 colon = system: COLO 205 colon
HCT-15 colon = system: HCT-15 colon
UO-31 renal = system: UO-31 renal
SW-620 colon = system: SW-620 colon
RPMI-8226 leukemia = system: RPMI-8226 leukemia
K-562 leukemia = system: K-562 leukemia
CAKI-1 renal = system: CAKI-1 renal
SNB-19 CNS = system: SNB-19 CNS
M14 melanoma = system: M14 melanoma
U251 glioblastoma = system: U251 glioblastoma
A549 NSCLC = system: A549 NSCLC
LOX IMVI melanoma = system: LOX IMVI melanoma
MCF7 breast = system: MCF7 breast

COC1CCC(N2C(=O)CNc3ncc(-c4ccc(C(C)(C)O)nc4)nc32)CC1 (configuration not stated)
GI50 (T-47D breast): 74.3 nM | TGI (T-47D breast): > 100 µM | GI50 (DU-145 prostate): 660 nM | TGI (DU-145 prostate): 20.2 µM | GI50 (SNB-75 CNS): 256 nM | TGI (SNB-75 CNS): 22.9 µM | GI50 (MDA-MB-435 melanoma): 515 nM | TGI (MDA-MB-435 melanoma): 24.2 µM | GI50 (SF-268 CNS): 2180 nM | TGI (SF-268 CNS): 20 µM | GI50 (NCI-H322M lung): 280 nM | TGI (NCI-H322M lung): 52.9 µM | GI50 (EKVX NSCLC): 530 nM | TGI (EKVX NSCLC): 31.2 µM | GI50 (SN12C renal): 275 nM | TGI (SN12C renal): 68.4 µM | GI50 (MOLT-4 leukemia): 233 nM | TGI (MOLT-4 leukemia): 2110 nM | GI50 (SK-MEL-28 melanoma): 234 nM | TGI (SK-MEL-28 melanoma): > 100 µM | GI50 (NCI/ADR-RES ovarian): 2360 nM | TGI (NCI/ADR-RES ovarian): 32.3 µM | GI50 (CCRF-CEM leukemia): 261 nM | TGI (CCRF-CEM leukemia): 10.6 µM | GI50 (SF-295 CNS): 184 nM | TGI (SF-295 CNS): 1120 nM | GI50 (HCC-2998 colon): 2540 nM | TGI (HCC-2998 colon): 34.8 µM | GI50 (SK-MEL-5 melanoma): 200 nM | TGI (SK-MEL-5 melanoma): 2620 nM | GI50 (HOP-62 NSCLC): 672 nM | TGI (HOP-62 NSCLC): > 100 µM | GI50 (OVCAR-3 ovarian): 386 nM | TGI (OVCAR-3 ovarian): 22.8 µM | GI50 (TK-10 renal): 504 nM | TGI (TK-10 renal): 17.2 µM | GI50 (NCI-H460 NSCLC): 65.9 nM | TGI (NCI-H460 NSCLC): 16.3 µM | GI50 (HOP-92 NSCLC): 454 nM | TGI (HOP-92 NSCLC): > 100 µM | GI50 (HL-60(TB) leukemia): 2470 nM | TGI (HL-60(TB) leukemia): 17.1 µM | GI50 (HS 578T breast): 173 nM | TGI (HS 578T breast): 523 nM | GI50 (KM12 colon): 474 nM | TGI (KM12 colon): 33.9 µM | GI50 (UACC-62 melanoma): 237 nM | TGI (UACC-62 melanoma): 8.49 µM | GI50 (ACHN renal): 479 nM | TGI (ACHN renal): > 100 µM | GI50 (NCI-H226 lung): 326 nM | TGI (NCI-H226 lung): 7.12 µM | GI50 (OVCAR-8 ovarian): 693 nM | TGI (OVCAR-8 ovarian): > 100 µM | GI50 (MDA-MB-468 breast): 344 nM | TGI (MDA-MB-468 breast): 6.98 µM | GI50 (IGROV1 ovarian): 137 nM | TGI (IGROV1 ovarian): 12.8 µM | GI50 (NCI-H23 lung): 1460 nM | TGI (NCI-H23 lung): > 100 µM | GI50 ([…]-0 renal): 911 nM | TGI (786-0 renal): > 100 µM | GI50 (BT-549 breast): 474 nM | TGI (BT-549 breast): 7.35 µM | GI50 (HT29 colon): 697 nM | TGI (HT29 colon): > 100 µM | GI50 (NCI-H522 lung): 200 nM | TGI (NCI-H522 lung): 21.4 µM | GI50 (SR leukemia): 16 nM | TGI (SR leukemia): 53.3 nM | GI50 (OVCAR-4 ovarian): 901 nM | TGI (OVCAR-4 ovarian): 8.95 µM | GI50 (PC-3 prostate): 157 nM | TGI (PC-3 prostate): 14.6 µM | GI50 (SK-OV-3 ovarian): 280 nM | TGI (SK-OV-3 ovarian): 17.1 µM | GI50 (SF-539 CNS): 1270 nM | TGI (SF-539 CNS): 22.3 µM | GI50 (RXF 393 renal): 438 nM | TGI (RXF 393 renal): 92.4 µM | GI50 (MALME-3M melanoma): 68.9 nM | TGI (MALME-3M melanoma): 587 nM | GI50 (HCT-116 colon): 690 nM | TGI (HCT-116 colon): 21.8 µM | GI50 (UACC-257 melanoma): 3.01 µM | TGI (UACC-257 melanoma): > 100 µM | GI50 (COLO 205 colon): 323 nM | TGI (COLO 205 colon): > 100 µM | GI50 (HCT-15 colon): 448 nM | TGI (HCT-15 colon): 44.7 µM | GI50 (UO-31 renal): 358 nM | TGI (UO-31 renal): > 100 µM | GI50 (SW-620 colon): 2580 nM | TGI (SW-620 colon): > 100 µM | GI50 (RPMI-8226 leukemia): 25 nM | TGI (RPMI-8226 leukemia): 110 nM | GI50 (K-562 leukemia): 517 nM | TGI (K-562 leukemia): 72 µM | GI50 (CAKI-1 renal): 215 nM | TGI (CAKI-1 renal): 3.62 µM | GI50 (SNB-19 CNS): 5.34 µM | TGI (SNB-19 CNS): > 100 µM | GI50 (M14 melanoma): 296 nM | TGI (M14 melanoma): > 100 µM | GI50 (U251 glioblastoma): 1900 nM | TGI (U251 glioblastoma): 41.2 µM | GI50 (A549 NSCLC): 358 nM | TGI (A549 NSCLC): > 100 µM | GI50 (LOX IMVI melanoma): 587 nM | TGI (LOX IMVI melanoma): 12.9 µM | GI50 (MCF7 breast): 68.6 nM | TGI (MCF7 breast): > 100 µM
